# Data as given in ChEMBL document CHEMBL1201862, “PubChem BioAssay data set” (2004).
#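 A five-concentration, 48-hour dose response in 96-well plates underlies each endpoint, interpolated linearly between surrounding concentrations. Here, GI50 denotes the concentration required for 50% inhibition of growth.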 The source made the active and inactive calls. Cut-off read from the data, not from the text of the source: active = GI50 up to about 1.1 µM and inactive = higher.
# What was measured:
# Test in all cases: inhibition of tumour cell growth, NCI panel, 48 h
# OVCAR-3 = tested on: OVCAR-3
# PC-3 = tested on: PC-3
# K562 = tested on: K562
# U-251 = tested on: U-251
# HCC 2998 = tested on: HCC 2998
# MDA-MB-231 = tested on: MDA-MB-231
# T47D = tested on: T47D
# HOP-92 = tested on: HOP-92
# SK-MEL-28 = tested on: SK-MEL-28
# COLO 205 = tested on: COLO 205
# ACHN = tested on: ACHN
# EKVX = tested on: EKVX
# CCRF-CEM = tested on: CCRF-CEM
# RPMI-8226 = tested on: RPMI-8226
# NCI-H522 = tested on: NCI-H522
# MDA-MB-435 = tested on: MDA-MB-435
# NCI-H460 = tested on: NCI-H460
# NCI-H226 = tested on: NCI-H226
# RXF 393 = tested on: RXF 393
SMILES,GI50 (OVCAR-3),GI50 (PC-3),GI50 (K562),GI50 (U-251),GI50 (HCC 2998),GI50 (MDA-MB-231),GI50 (T47D),GI50 (HOP-92),GI50 (SK-MEL-28),GI50 (COLO 205),GI50 (ACHN),GI50 (EKVX),GI50 (CCRF-CEM),GI50 (RPMI-8226),GI50 (NCI-H522),GI50 (MDA-MB-435),GI50 (NCI-H460),GI50 (NCI-H226),GI50 (RXF 393)
O=C(CCN1CCOCC1)Nc1ccc2sc3ccccc3c(=O)c2n1,47.9 µM (inactive),18.2 µM (inactive),8.49 µM (inactive),42.9 µM (inactive),33.9 µM (inactive),35.6 µM (inactive),20.6 µM (inactive),45.3 µM (inactive),53.5 µM (inactive),25 µM (inactive),35.5 µM (inactive),58.2 µM (inactive),19.7 µM (inactive),28 µM (inactive),13.2 µM (inactive),42.4 µM (inactive),37.8 µM (inactive),,
[O-][N+]1(CC[N+]2([O-])CCCCC2)CCCCC1,> 100 µM (inactive),> 100 µM (inactive),> 100 µM (inactive),> 100 µM (inactive),,> 100 µM (inactive),> 100 µM (inactive),> 100 µM (inactive),> 100 µM (inactive),> 100 µM (inactive),> 100 µM (inactive),> 100 µM (inactive),> 100 µM (inactive),> 100 µM (inactive),> 100 µM (inactive),> 100 µM (inactive),> 100 µM (inactive),> 100 µM (inactive),> 100 µM (inactive)
COc1ccc(-c2cc(-c3cc(F)c(Cl)cc3Cl)on2)cc1OC,11.8 µM (inactive),18.7 µM (inactive),3.96 µM (inactive),25.9 µM (inactive),,20.1 µM (inactive),15.6 µM (inactive),30.1 µM (inactive),28.3 µM (inactive),17.4 µM (inactive),37.2 µM (inactive),75.5 µM (inactive),12.5 µM (inactive),34.7 µM (inactive),15.6 µM (inactive),1.8 µM (inactive),26.2 µM (inactive),13.3 µM (inactive),8.07 µM (inactive)
COc1cc(S(=O)(=O)Nc2ccc(-c3csc(/N=C\c4ccccc4)n3)cc2)ccc1Cl,56.9 µM (inactive),48.2 µM (inactive),32.2 µM (inactive),,,37.2 µM (inactive),35.9 µM (inactive),> 100 µM (inactive),33.7 µM (inactive),36.4 µM (inactive),> 100 µM (inactive),30.3 µM (inactive),17 µM (inactive),32 µM (inactive),29.9 µM (inactive),34.1 µM (inactive),,75.2 µM (inactive),1.44 µM (inactive)
S=C(Nc1cc(Cl)c(Cl)cc1Cl)SCc1ccccc1,21.8 µM (inactive),32 µM (inactive),18.5 µM (inactive),22.2 µM (inactive),,13.1 µM (inactive),32.3 µM (inactive),21.3 µM (inactive),28.6 µM (inactive),34.9 µM (inactive),20.5 µM (inactive),40.7 µM (inactive),,21 µM (inactive),24.3 µM (inactive),19.8 µM (inactive),45.8 µM (inactive),18.5 µM (inactive),54.8 µM (inactive)
CCCCC(C(=O)N/N=C/c1ccc([N+](=O)[O-])o1)C(=O)N/N=C/c1ccc([N+](=O)[O-])o1,2.32 µM (inactive),2.81 µM (inactive),3.28 µM (inactive),2.74 µM (inactive),,3.81 µM (inactive),3.46 µM (inactive),1.52 µM (inactive),3.96 µM (inactive),4.28 µM (inactive),1.82 µM (inactive),13.4 µM (inactive),0.977 µM (active),0.682 µM (active),,5.7 µM (inactive),15.1 µM (inactive),2.37 µM (inactive),2.07 µM (inactive)
O=C(Cn1c(=O)oc2ccc(C(=O)c3cccc(Cl)c3)cc21)c1ccccc1,> 100 µM (inactive),> 100 µM (inactive),57.8 µM (inactive),> 100 µM (inactive),20.1 µM (inactive),> 100 µM (inactive),4.53 µM (inactive),7.14 µM (inactive),> 100 µM (inactive),33.9 µM (inactive),> 100 µM (inactive),30.1 µM (inactive),> 100 µM (inactive),> 100 µM (inactive),> 100 µM (inactive),> 100 µM (inactive),41.7 µM (inactive),40.9 µM (inactive),
CC(=O)OCC(C)(COC(C)=O)N1C(=O)C2C3c4ccccc4C(c4ccccc43)C2C1=O (configuration not stated),> 100 µM (inactive),> 100 µM (inactive),> 100 µM (inactive),> 100 µM (inactive),,> 100 µM (inactive),> 100 µM (inactive),> 100 µM (inactive),,> 100 µM (inactive),> 100 µM (inactive),> 100 µM (inactive),> 100 µM (inactive),> 100 µM (inactive),,> 100 µM (inactive),> 100 µM (inactive),> 100 µM (inactive),35.6 µM (inactive)
C#CCn1c(=O)ccn(/C(=C/C(=O)OCC)C(=O)OCC)c1=O,6.35 µM (inactive),14.2 µM (inactive),3.36 µM (inactive),14.2 µM (inactive),,14.8 µM (inactive),2.67 µM (inactive),2.38 µM (inactive),7.41 µM (inactive),1.81 µM (inactive),1.59 µM (inactive),5.62 µM (inactive),0.61 µM (active),2.9 µM (inactive),,10.9 µM (inactive),2.69 µM (inactive),18.6 µM (inactive),1.36 µM (inactive)
C/C=C/CC(C(=O)OCC)(N(C)C(=O)OC(C)(C)C)S(=O)(=O)c1ccc(C)cc1 (configuration not stated),> 100 µM (inactive),71.8 µM (inactive),70.5 µM (inactive),81.5 µM (inactive),,> 100 µM (inactive),> 100 µM (inactive),> 100 µM (inactive),> 100 µM (inactive),68.1 µM (inactive),> 100 µM (inactive),> 100 µM (inactive),> 100 µM (inactive),52.8 µM (inactive),57.7 µM (inactive),25.7 µM (inactive),,> 100 µM (inactive),> 100 µM (inactive)
Clc1cc(-c2ccccc2)nc(Nc2nc3ccccc3[nH]2)n1,,44.7 µM (inactive),4.05 µM (inactive),15.3 µM (inactive),,15 µM (inactive),> 100 µM (inactive),2.2 µM (inactive),,13.8 µM (inactive),17.5 µM (inactive),24 µM (inactive),6.08 µM (inactive),> 100 µM (inactive),11.4 µM (inactive),23.3 µM (inactive),19 µM (inactive),55.5 µM (inactive),4.27 µM (inactive)
COc1ccc(OC)c2sc(N3C(=O)/C(=C/c4ccc(Cl)cc4)N=C3c3ccccc3)nc12,46.3 µM (inactive),58.1 µM (inactive),26.2 µM (inactive),40.7 µM (inactive),80.2 µM (inactive),> 100 µM (inactive),23.3 µM (inactive),49.5 µM (inactive),> 100 µM (inactive),> 100 µM (inactive),> 100 µM (inactive),> 100 µM (inactive),37 µM (inactive),33.7 µM (inactive),48.9 µM (inactive),30.8 µM (inactive),80.5 µM (inactive),,78.5 µM (inactive)
CN(C)c1ccc(/C=C2\N=C(c3ccccc3)N(c3nc4ccc(Sc5ccccc5)cc4[nH]3)C2=O)cc1,27.4 µM (inactive),39.1 µM (inactive),26.4 µM (inactive),47.9 µM (inactive),17.4 µM (inactive),49.1 µM (inactive),44 µM (inactive),94.4 µM (inactive),57.1 µM (inactive),21.6 µM (inactive),81.8 µM (inactive),40.7 µM (inactive),16.7 µM (inactive),24.8 µM (inactive),29.2 µM (inactive),16.7 µM (inactive),30 µM (inactive),,50.2 µM (inactive)
CCC1(O)CC(OC2CC(N(C)C)C(OC3CC(O)C(OC4OC(C)C(=O)C=C4N)C(C)O3)C(C)O2)c2c(cc3c(c2O)C(=O)c2c(O)cccc2C3=O)C1C(=O)OC (configuration not stated),0.129 µM (active),0.00566 µM (active),< 0.001 µM (active),0.00385 µM (active),0.0153 µM (active),0.29 µM (active),0.0292 µM (active),0.0746 µM (active),0.0272 µM (active),0.00429 µM (active),0.0206 µM (active),0.0224 µM (active),0.00169 µM (active),0.00153 µM (active),0.0355 µM (active),0.00583 µM (active),< 0.001 µM (active),0.115 µM (active),
NS(=O)(=O)c1ccc(/N=N/c2cccnc2O)cc1,> 100 µM (inactive),> 100 µM (inactive),> 100 µM (inactive),> 100 µM (inactive),,> 100 µM (inactive),> 100 µM (inactive),> 100 µM (inactive),> 100 µM (inactive),> 100 µM (inactive),> 100 µM (inactive),> 100 µM (inactive),20.7 µM (inactive),> 100 µM (inactive),> 100 µM (inactive),> 100 µM (inactive),> 100 µM (inactive),> 100 µM (inactive),> 100 µM (inactive)
C=C(C)C1CC=C(C)C(=O)C1 (configuration not stated) [CARVONE],> 100 µM (inactive),> 100 µM (inactive),> 100 µM (inactive),> 100 µM (inactive),> 100 µM (inactive),> 100 µM (inactive),> 100 µM (inactive),> 100 µM (inactive),> 100 µM (inactive),> 100 µM (inactive),> 100 µM (inactive),> 100 µM (inactive),> 100 µM (inactive),> 100 µM (inactive),> 100 µM (inactive),> 100 µM (inactive),> 100 µM (inactive),> 100 µM (inactive),
